Results on 1 compound are retold here after US12134788B2, “Engineered prephenate dehydrogenases and arogenate dehydrogenases and methods of using the same” (Wisconsin Alumni Research Foundation, priority 2017, dated 2024).

The target of test [1] is T1, Glycine max GmncADH variant D218N (Glycine max, UniProt I1M7P5, D218N).
T1 construct: D218N by site-directed mutagenesis
Kind of test: ADH and PDH assay: steady-state kinetics and Tyr inhibition, GmncADH D218N. In kind it is biochemical, Glycine max (soybean). To be noted: versus wild-type; ADH activity, 0-8 mM Tyr. The protocol: (§1) Kinetic parameters of purified recombinant proteins were determined from assays conducted at varying arogenate (19.5 μM-5 mM) and prephenate concentration (23.4 μM-6 mM). Standard assay conditions were 25 mM HEPES pH 7.6, 50 mM KCl and 10% (v/v) ethylene glycol, and 0.5 mM NADP^+ with varied substrate, concentrations. Reactions were initiated by addition of enzyme and incubated at 37° C. monitored every 10-15 seconds at […] using a microplate reader (Tecan Genios). Kinetic parameters were determined by fitting initial velocity data to the Michaelis-Menten equation using the Origin software (OriginLab).
(§2) Arogenate was prepared by enzymatic conversion of prephenate (Sigma-Aldrich) as previously reported^56. For Tyr inhibition assays, Tyr was dissolved in a slightly basic solution (0.025 N NaOH) due to solubility issues, thus the concentration of lysis buffer was increased to 500 mM HEPES final concentration to buffer against the changes by addition of Tyr in the reaction. Reactions containing varying amounts of Tyr (10 μM-8 mM) with 0.5 mM NADP^+ and either 1 mM arogenate or 0.8 mM prephenate were monitored as above.

For test [2], the target named is T2, Medicago truncatula MtncADH variant D220C, SEQ ID NO: 10 (Medicago truncatula, UniProt A0A217FAR3, D220C).
T2 construct: D220C by site-directed mutagenesis
T2 sequence (A0A217FAR3 1-266 D220C): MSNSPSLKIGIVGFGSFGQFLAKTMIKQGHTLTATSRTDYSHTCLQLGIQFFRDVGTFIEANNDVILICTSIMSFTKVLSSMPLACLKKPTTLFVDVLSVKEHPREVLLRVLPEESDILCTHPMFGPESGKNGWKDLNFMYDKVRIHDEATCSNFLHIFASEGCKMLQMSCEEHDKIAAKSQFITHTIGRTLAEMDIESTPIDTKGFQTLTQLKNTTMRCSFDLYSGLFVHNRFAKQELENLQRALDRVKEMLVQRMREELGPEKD
In words: ADH and PDH assay: steady-state kinetics and Tyr inhibition, MtncADH D220C. In kind it is biochemical. The protocol: as §1, §2

Test [3] concerns the target T3, Glycine max GmPDH1 variant N222D, SEQ ID NO: 2 (Glycine max, UniProt I1MYY4, N222D).
T3 sequence (I1MYY4 1-271 N222D): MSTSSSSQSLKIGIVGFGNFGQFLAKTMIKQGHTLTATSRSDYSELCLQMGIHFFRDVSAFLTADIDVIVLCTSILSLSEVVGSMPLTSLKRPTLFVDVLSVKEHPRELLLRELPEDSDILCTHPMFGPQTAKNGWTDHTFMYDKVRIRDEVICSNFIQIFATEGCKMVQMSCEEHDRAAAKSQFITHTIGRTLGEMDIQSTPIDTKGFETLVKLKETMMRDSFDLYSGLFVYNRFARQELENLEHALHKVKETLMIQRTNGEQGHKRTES
Kind of test: ADH and PDH assay: steady-state kinetics and Tyr inhibition, GmPDH1 N222D. The class given is biochemical, Glycine max (soybean). To be noted: IC50^Tyr, 0.5 mM NADP^+. On the procedure:
as §1, §2

Test [4] deals with SynADH, Synechocystis sp. PCC 6803 arogenate dehydrogenase. To be noted: cited from earlier work.
Test [5] deals with T4, Medicago truncatula MtPDH variant C220D, SEQ ID NO: 1 (Medicago truncatula, UniProt A0A0A0R205, C220D).
T4 sequence (A0A0A0R205 1-268 C220D): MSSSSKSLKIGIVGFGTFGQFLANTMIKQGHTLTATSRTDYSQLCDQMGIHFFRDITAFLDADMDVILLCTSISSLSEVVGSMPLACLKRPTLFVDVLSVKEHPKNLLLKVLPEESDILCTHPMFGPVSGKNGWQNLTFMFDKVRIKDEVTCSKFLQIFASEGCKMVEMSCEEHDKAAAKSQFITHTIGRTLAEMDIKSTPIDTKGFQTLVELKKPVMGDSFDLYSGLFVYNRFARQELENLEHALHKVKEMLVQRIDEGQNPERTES
Kind of test: ADH and PDH assay: steady-state kinetics and Tyr inhibition, MtPDH C220D. The class given is biochemical. The protocol: as §1, §2

Test [6] deals with AtADH2 (At1g15710), Arabidopsis thaliana canonical arogenate dehydrogenase, wild type (Arabidopsis thaliana, UniProt Q9LMR3). Kind of test: Tyr inhibition of AtADH2 wild type. The class given is biochemical. To be noted: ADH activity, 0-8 mM L-Tyr. The protocol:
as §1, §2

Test [7] concerns Peanut PDH/ADH (AipaensisVYE8T), Arachis ipaensis, wild type. Kind of test: ADH and PDH assay: steady-state kinetics and Tyr inhibition, peanut PDH/ADH. In kind it is biochemical. To be noted: 0-8 mM L-Tyr. The protocol: as §1, §2

T1 sequence (I1M7P5 1-266 D218N): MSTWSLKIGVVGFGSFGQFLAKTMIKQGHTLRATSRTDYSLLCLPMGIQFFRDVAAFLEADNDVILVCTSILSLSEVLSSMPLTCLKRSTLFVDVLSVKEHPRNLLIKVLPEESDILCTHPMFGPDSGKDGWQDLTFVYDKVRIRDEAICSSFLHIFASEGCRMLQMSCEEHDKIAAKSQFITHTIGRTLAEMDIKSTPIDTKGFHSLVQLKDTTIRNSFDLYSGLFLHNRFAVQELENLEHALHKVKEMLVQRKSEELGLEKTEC
Sequence of AtADH2 (At1g15710), Arabidopsis thaliana canonical arogenate dehydrogenase, wild type (Q9LMR3 37-358): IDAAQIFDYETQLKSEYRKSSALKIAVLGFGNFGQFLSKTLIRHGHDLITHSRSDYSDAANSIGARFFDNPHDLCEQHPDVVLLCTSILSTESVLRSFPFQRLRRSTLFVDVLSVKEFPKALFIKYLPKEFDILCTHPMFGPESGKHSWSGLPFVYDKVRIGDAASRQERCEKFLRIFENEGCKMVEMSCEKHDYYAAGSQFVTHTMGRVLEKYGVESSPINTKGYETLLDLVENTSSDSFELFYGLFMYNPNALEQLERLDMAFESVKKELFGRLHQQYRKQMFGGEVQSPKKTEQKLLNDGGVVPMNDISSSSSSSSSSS

Turning to `N[C@@H](Cc1ccc(O)cc1)C(=O)O` [Tyr, L-Tyrosine], the “sensitivity to Tyr inhibition” value in test [1] is “significantly less sensitive to Tyr inhibition”; in test [2] (versus wild-type, ADH activity, 0-8 mM Tyr), “significantly less sensitive to Tyr inhibition”. In addition, the IC50 in test [2] came out at 7.7 ± 1.5 mM; in test [3] (substrate arogenate (1 mM)), 4.7 ± 0.4 mM; in test [3] (substrate prephenate (0.8 mM)), 5.3 ± 0.4 mM; in test [5], 8.2 ± 0.9 mM; in test [6] it was 0.038 mM. For the same compound, the Tyr sensitivity entry in test [4] is “Tyr insensitive”. In test [7], the Tyr inhibition result is reported as “insensitive to Tyr inhibition”.

Usually IC50 stands for the midpoint of a concentration-inhibition curve. Read a low IC50 as greater potency.
